Test results: ChEMBL document CHEMBL1128984, “Synthesis and biological activity of novel tricyclic -lactams” (1996)

Assays:
Type in all cases: functional
Staphylococcus aureus [1] = assay: In vitro antibacterial activity against Staphylococcus aureus 663.
Clostridium perfringens = assay: In vitro antibacterial activity against Clostridium perfringens 615.
Enterococcus faecalis = assay: In vitro antibacterial activity against […] faecalis 850E.
Staphylococcus aureus [2] = assay: In vitro antibacterial activity against Staphylococcus aureus 853.
Staphylococcus aureus [3] = assay: In vitro antibacterial activity against Staphylococcus aureus 1131.
Escherichia coli = assay: In vitro antibacterial activity against Escherichia coli 1850.
Pseudomonas aeruginosa = assay: In vitro antibacterial activity against Pseudomonas aeruginosa 1911.

In the case of C[C@@H](O)[C@H]1C(=O)N2C(C(=O)O)=C(SCCNC=N)C[C@H]12.O [IMIPENEM], the MIC (Staphylococcus aureus [1]) is reported as 0.06 µg/mL, the MIC (Clostridium perfringens) is reported as 0.03 µg/mL and the MIC (Enterococcus faecalis) is reported as 2 µg/mL. For the same compound, the MIC (Staphylococcus aureus [2]) was 0.12 µg/mL, the MIC (Staphylococcus aureus [3]) was 4 µg/mL and the MIC (Escherichia coli) was 0.5 µg/mL. It also gave an MIC (Pseudomonas aeruginosa) of 4 µg/mL.
With C[C@@H](O)[C@H]1C(=O)N2C(C(=O)[O-])=C3CCC[C@H]3[C@H]12.[Na+] the MIC (Staphylococcus aureus [1]) was 1 µg/mL, the MIC (Clostridium perfringens) was 1 µg/mL and the MIC (Enterococcus faecalis) was 16 µg/mL. The MIC (Staphylococcus aureus [2]) was 0.5 µg/mL, the MIC (Staphylococcus aureus [3]) was 8 µg/mL and the MIC (Escherichia coli) was 2 µg/mL. It also gave an MIC (Pseudomonas aeruginosa) greater than 32 µg/mL.
With CO[C@H]1CC[C@H]2C1=C(C(=O)[O-])N1C(=O)[C@H]([C@@H](C)O)[C@@H]21.[Na+] the MIC (Staphylococcus aureus [1]) was 0.25 µg/mL, the MIC (Clostridium perfringens) was 0.12 µg/mL and the MIC (Enterococcus faecalis) was 2 µg/mL. The MIC (Staphylococcus aureus [2]) was 0.5 µg/mL, the MIC (Staphylococcus aureus [3]) was 8 µg/mL and the MIC (Escherichia coli) was 0.5 µg/mL. For the same compound, the MIC (Pseudomonas aeruginosa) was 32 µg/mL.
